test system: Host cell viability cytotoxicity counter-screen, SV40 T antigen hits; experiment: cell viability loss from selected hits – cytotoxicity control for SV40 T antigen inhibitor project, dose response (AID 2102);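 note: cells exposed to compounds for 72 hours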

Q: With `O=c1cc(-c2ccc(O)c(O)c2)oc2cc(O)cc(O)c12` as the compound, how does the CC50 read?
A: 47.9 µM

Q: With `CCCc1nc2ccccc2c(=O)n1/N=C/c1ccc(O)c(O)c1` as the compound, how does the CC50 read?
A: 48.4 µM

Q: `C=CCn1c(SCC(C)=O)nc2scc(-c3ccco3)c2c1=O` was tested. Which CC50 did it give?
A: 48.4 µM

Q: How did the CC50 turn out when `O=C(N/N=C/c1cc(Br)c(O)c(Br)c1)c1cc2c(ccc3ccccc32)o1` was run?
A: 32.3 µM

Q: How did the CC50 turn out when `Cc1ccc(S(=O)(=O)N2CCCOC2CNC(=O)C(=O)NCCc2c[nH]c3ccccc23)cc1` (centres undefined) was run?
A: 27.7 µM

Q: With `O=C(CCl)Nc1ccc(N2CCCCCC2)cc1` as the compound, how does the CC50 read?
A: 47.1 µM

Q: For `Cc1ccc(C2(C)NC(=O)N(CC(=O)Nc3nc(-c4ccccn4)cs3)C2=O)cc1` (centres undefined), which CC50 is on record?
A: 11.3 µM

Q: Which CC50 does the source give for `Cc1c(C)n(Cc2ccccc2)c2ncnc(NN)c12` here?
A: 6.12 µM

Q: How did the CC50 turn out when `CCOC(=O)c1[nH]nc(-c2cc(CC)c(O)cc2O)c1-c1cscn1` was run?
A: 33.7 µM

Q: Which CC50 does the source give for `Cc1ccc(S(=O)(=O)N2[C@@H](c3ccc(Cl)cc3)C(C(=O)O)=CC[C@H]2c2ccc(Cl)cc2)cc1` here?
A: 30.7 µM

Q: `O=c1oc2cc(O)ccc2s1` was tested. Which CC50 did it give?
A: 31.2 µM

Q: How did the CC50 turn out when `O=C(O)c1ccc(-n2cccc2/C=C2/NC(=O)N(c3ccccc3)C2=O)cc1` was run?
A: 15.6 µM

Q: How did the CC50 turn out when `O=C(/C=C/c1ccc(O)c(O)c1)c1ccccc1O` was run?
A: 26.3 µM

Q: `Cc1ccc(-n2sc3ccccc3c2=O)cc1S(=O)(=O)N1CCCCC1` was tested. Which CC50 did it give?
A: 14.7 µM

Q: With `CNc1nc(-c2ccccc2)[n+](-c2ccc(C)cc2)s1` as the compound, how does the CC50 read?
A: 36.2 µM

Q: For `N#Cc1ccccc1CN1C(=O)S/C(=C/c2cccn2-c2cccc(C(=O)O)c2)C1=O`, which CC50 is on record?
A: 16.9 µM

Q: For `COc1cccc(CNc2ccc3[nH]c(=O)[nH]c3c2)c1OCc1ccccc1`, which CC50 is on record?
A: 37 µM

Q: For `O=C(NC1CCCC1)c1sc(=S)n2c1[nH]c(=O)c1ccccc12`, which CC50 is on record?
A: 15.9 µM

Q: `O=C1NC(=Nc2ccc(O)cc2)S/C1=C\C=C\c1ccco1` was tested. Which CC50 did it give?
A: 30.2 µM

Q: `Cc1cc2c(N=O)c(NO)ccc2[nH]1` was tested. Which CC50 did it give?
A: 22.1 µM

Q: `Cc1ccccc1/C=C/C(=O)c1ccc([N+](=O)[O-])o1` was tested. Which CC50 did it give?
A: 23.6 µM

Q: `CC(=O)N(c1ccc2oc(=O)sc2c1)S(=O)(=O)c1cccs1` was tested. Which CC50 did it give?
A: 33.8 µM

Q: Which CC50 does the source give for `Cc1c(Br)c(=O)oc2c(Br)c(O)c(O)cc12` here?
A: 49.2 µM

Q: For `O=C1NC(=S)S/C1=C\c1ccc(SCc2ccccc2)o1`, which CC50 is on record?
A: 30 µM

Q: `O=C(CCOc1ccccc1)N1CCN(c2ccc(O)cc2)CC1` was tested. Which CC50 did it give?
A: 31.5 µM

Q: For `CCS(=O)(=O)c1ncc(Cl)c(C(=O)Nc2ccc(S(=O)(=O)N3CCCC(C)C3)cc2)n1` (centres undefined), which CC50 is on record?
A: 31.2 µM

Q: `Cc1cc(C(=O)c2cccs2)c(N)s1` was tested. Which CC50 did it give?
A: 35.8 µM

Q: How did the CC50 turn out when `CCN(CC)c1ccc(NC(=O)C2CC(=O)N(Cc3ccccc3)C2)cc1` (centres undefined) was run?
A: 42.7 µM

Q: `COc1cc(CNc2ccc(N3CCOCC3)cc2)ccc1OCC(=O)NC(C)(C)C` was tested. Which CC50 did it give?
A: 30.8 µM

Q: For `CCCC[n+]1c2ccccc2cc2ccccc21`, which CC50 is on record?
A: 23.9 µM

Q: With `CC(C)c1ccc(S(=O)(=O)N2CCN(CC(=O)c3ccc(O)c(O)c3)CC2)cc1` as the compound, how does the CC50 read?
A: 31.3 µM

Q: How did the CC50 turn out when `COc1cc(CNc2ccc(N3CCCCC3)cc2)ccc1OCC(=O)NC(C)(C)C` was run?
A: 24.5 µM

Q: How did the CC50 turn out when `O=C(NN1C(=O)/C(=C/C=C/c2ccco2)SC1=S)c1ccccc1O` was run?
A: 40.6 µM

Q: Which CC50 does the source give for `CCCCCCCCCCCCCCCC[N+](C)(C)CCN(Cc1ccc(OC)cc1)c1ncccn1` here?
A: 7.39 µM

Q: Which CC50 does the source give for `CCOC(=O)c1c(N2C(=O)Nc3cc(Cl)c(Cl)cc3N2O)sc2c1CCCCC2` here?
A: 15.6 µM

Q: With `COc1cc(/C=C/C(=O)c2ccc([N+](=O)[O-])o2)ccc1O` as the compound, how does the CC50 read?
A: 44.1 µM

Q: Which CC50 does the source give for `CCN(CC)c1ccc(/C=N/N2CCOCC2)cc1` here?
A: 49.4 µM

Q: With `C=C1C(=O)O[C@H]2[C@H]1[C@H](OC(=O)CC(=O)O[C@@H]1C[C@@H](C)[C@@H]3C=CC(=O)[C@@]3(C)[C@H]3OC(=O)C(=C)[C@H]13)C[C@@H](C)[C@H]1C=CC(=O)[C@]12C` as the compound, how does the CC50 read?
A: 3.95 µM

Q: `CCOc1c(Br)cc(CNc2ccc(N3CCOCC3)cc2)cc1OC` was tested. Which CC50 did it give?
A: 13.8 µM

Q: With `CCCCC(CC)CN=C(N)NC(N)=NCCCCCCN=C(N)NC(N)=NCC(CC)CCCC` (centres undefined) as the compound, how does the CC50 read?
A: 3.49 µM

Q: Which CC50 does the source give for `O=c1cc2oc3cc(O)c(O)cc3c(-c3ccccc3[N+](=O)[O-])c-2cc1O` here?
A: 24.1 µM

Q: `O=C(c1ccccc1)N1CCN(c2ccc(NCc3ccc4c(c3)OCO4)cc2)CC1` was tested. Which CC50 did it give?
A: 17.3 µM

Q: `COC1=C(Nc2ccc(O)cc2)C(=O)c2ccccc2C1=O` was tested. Which CC50 did it give?
A: 16.5 µM

Q: `Cc1ccc2nc(-c3ccccn3)c(NC3CCCC3)n2c1` was tested. Which CC50 did it give?
A: 15.1 µM

Q: With `CCCc1cc(-c2n[nH]c(C(=O)OCC)c2-c2cscn2)c(O)cc1O` as the compound, how does the CC50 read?
A: 11.1 µM

Q: For `CCN(CC)c1ccc(/C=C2\C(=O)N(c3nnc(C)c(=O)[nH]3)N=C2C)cc1`, which CC50 is on record?
A: 46.4 µM

Q: For `O=C1NC(=S)S/C1=C\c1ccc(SCc2ccco2)o1`, which CC50 is on record?
A: 15.2 µM

Q: `COc1ccc(-n2c(=O)c3c4c(sc3n3c(=S)[nH]nc23)COC(C(C)C)C4)cc1` (centres undefined) was tested. Which CC50 did it give?
A: 40.1 µM

Q: How did the CC50 turn out when `CCC[n+]1c2ccccc2cc2ccccc21` was run?
A: 23.8 µM

Q: `CCOc1ccc(NCc2cccn2-c2nnc(N3CCC(C(=O)NCCCN4CC(C)CC(C)C4)CC3)s2)cc1` (centres undefined) was tested. Which CC50 did it give?
A: 36.9 µM

Q: For `Cc1ccc(OCCC(=O)N2CCN(c3ccc(O)cc3)CC2)cc1`, which CC50 is on record?
A: 20.7 µM

Q: Which CC50 does the source give for `CN(C)c1ccc(NS(=O)(=O)c2cccc(Cl)c2)cc1` here?
A: 47.2 µM

Q: Which CC50 does the source give for `Cc1ccccc1-n1sc2cc(F)ccc2c1=O` here?
A: 14.6 µM

Q: `O=c1c2ccccc2nc(COc2ccccc2)n1/N=C/c1ccc(O)c(O)c1` was tested. Which CC50 did it give?
A: 33.8 µM

Q: `CCOc1cc(N2CCOCC2)c(OCC)cc1NS(=O)(=O)c1ccc(Cl)s1` was tested. Which CC50 did it give?
A: 40 µM

Q: For `O=S(=O)(c1ccc(NC(=S)N2CCN(c3ccc(O)cc3)CC2)cc1)N1CCOCC1`, which CC50 is on record?
A: 33 µM

Q: How did the CC50 turn out when `Oc1ccc(CCNc2c3ccccc3nc3ccccc23)cc1O` was run?
A: 39.3 µM

Q: Which CC50 does the source give for `CCOc1ccc(NCc2cccn2-c2nnc(N3CCC(C(=O)NCCCN4CCCCC4CC)CC3)s2)cc1` (centres undefined) here?
A: 49.8 µM

Q: For `CN1\C(=C/C=C/C=C/C=[N+](C)C)C(C)(C)c2ccccc21`, which CC50 is on record?
A: 21.7 µM

Q: Which CC50 does the source give for `CCCCNC(=O)c1sc(=S)n2c1[nH]c(=O)c1ccccc12` here?
A: 31.8 µM

Q: Which CC50 does the source give for `COc1cc(Cl)ccc1NC(=O)COc1ccccc1C(=O)N1CCN(c2ccc(O)cc2)CC1` here?
A: 33.7 µM

Q: Which CC50 does the source give for `Nc1cnc(Nc2ccc(Br)cc2)nc1N` here?
A: 42.2 µM

Q: `Oc1ccc(N2CCN(C(=S)NCCc3ccccc3)CC2)cc1` was tested. Which CC50 did it give?
A: 45 µM

Q: For `Cc1ccc(-c2ccc(/C=C3\C(=O)ON=C3c3ccccc3)o2)c([N+](=O)[O-])c1`, which CC50 is on record?
A: 37.5 µM

Q: Which CC50 does the source give for `COc1cccc(-n2c(SCc3cc(=O)oc4cc(O)c(O)cc34)nc3ccccc3c2=O)c1` here?
A: 18.2 µM

Q: Which CC50 does the source give for `O=C(CCSc1ccc(Cl)cc1)N1CCN(c2ccc(O)cc2)CC1` here?
A: 14.6 µM

Q: Which CC50 does the source give for `O=[N+]([O-])c1ccc(-[n+]2ccc3ccccc3c2)c([N+](=O)[O-])c1` here?
A: 29 µM

Q: For `CC1=NOC(=O)/C1=C\c1ccc(-c2ccccc2Br)o1`, which CC50 is on record?
A: 24.7 µM

Q: `COc1cc(OC)c(-c2c3cc(O)c(=O)cc-3oc3cc(O)c(O)cc23)cc1OC` was tested. Which CC50 did it give?
A: 47.7 µM

Q: With `O=C1C(SCCO)=C(SCCO)C(=O)c2ccccc21` as the compound, how does the CC50 read?
A: 28.2 µM

Q: How did the CC50 turn out when `CCN(CC)c1ccc(NC(=O)CCNS(=O)(=O)c2ccc3c(c2)CCC(=O)N3)c(C)c1` was run?
A: 42.2 µM

Q: For `Oc1cc2c(c(Cl)c1O)CCNCC2c1ccccc1` (centres undefined), which CC50 is on record?
A: 41 µM

Q: `Cc1nc2ncccn2c1-c1csc(Nc2ccc(N(C)C)cc2)n1` was tested. Which CC50 did it give?
A: 27.5 µM

Q: For `COc1cnc(-c2ccccn2)nc1Oc1ccc(Cl)c2ccccc12`, which CC50 is on record?
A: 13.7 µM

Q: With `C=CCn1c(=S)[nH]c2scc(-c3ccco3)c2c1=O` as the compound, how does the CC50 read?
A: 32.5 µM

Q: Which CC50 does the source give for `CCOc1c(Br)cc(CNc2ccc(N3CCN(C(C)=O)CC3)cc2)cc1OC` here?
A: 14.2 µM

Q: `COc1ccc(N2CCC(CNC(=S)Nc3c(C)cccc3C)C2)cc1` (centres undefined) was tested. Which CC50 did it give?
A: 45.8 µM

Q: `COCCN=C1Sc2nc3c(C)cccc3cc2CN1Cc1ccco1` was tested. Which CC50 did it give?
A: 23 µM

Q: Which CC50 does the source give for `Clc1ccccc1CSc1nnc(-c2ccco2)c(-c2ccco2)n1` here?
A: 24.6 µM

Q: With `COc1ccc(N2CCC(CNC(=S)Nc3ccc(C)cc3C)C2)cc1` (centres undefined) as the compound, how does the CC50 read?
A: 15 µM

Q: How did the CC50 turn out when `COc1ccc(NC2CCCN(Cc3cccc4cnccc34)C2)cc1OC` (centres undefined) was run?
A: 35.9 µM

Q: `CN(C)S(=O)(=O)c1cccc(-n2sc3ccccc3c2=O)c1` was tested. Which CC50 did it give?
A: 30.4 µM

Q: `CC1=C(C(=O)OCC(C)C)C(c2cccs2)NC(=S)N1` (centres undefined) was tested. Which CC50 did it give?
A: 21 µM

Q: Which CC50 does the source give for `Oc1ccc(/C=N/Nc2ccc(C(F)(F)F)cn2)cc1O` here?
A: 34.6 µM

Q: `Oc1ccc(-c2[nH]ncc2-c2cccc3cccnc23)c(O)c1` was tested. Which CC50 did it give?
A: 17.3 µM

Q: For `COc1ccc(N2CCC(CNC(=S)Nc3c(C)cc(C)cc3C)C2)cc1` (centres undefined), which CC50 is on record?
A: 15.9 µM

Q: For `CCS(=O)(=O)c1ncc(Cl)c(C(=O)Nc2ccc(S(=O)(=O)N3CCC(C)CC3)cc2)n1`, which CC50 is on record?
A: 48.6 µM

Q: How did the CC50 turn out when `CC(=O)N(c1ccc2oc(=O)sc2c1)S(=O)(=O)c1ccccc1` was run?
A: 36.8 µM

Q: `CC(=O)Nc1sc(N/N=C\c2ccco2)nc1-c1cccs1` was tested. Which CC50 did it give?
A: 49.8 µM

Q: With `Cc1ccc(/C=C2/SC(=O)NC2=S)o1` as the compound, how does the CC50 read?
A: 48.1 µM

Q: Which CC50 does the source give for `Oc1ccc(Nc2nc(N3CCCC3)c3ccccc3n2)cc1` here?
A: 30.7 µM

Q: For `CC(/C=C1\SC(=S)N(CCCC(=O)Nc2ccc(C(=O)O)c(O)c2)C1=O)=C\c1ccccc1`, which CC50 is on record?
A: 38.4 µM

Q: `COc1cc(-c2cc(=O)c3ccccc3o2)ccc1O` was tested. Which CC50 did it give?
A: 35.7 µM

Q: How did the CC50 turn out when `Cc1ccc(/C=N/n2c(-c3ccco3)n[nH]c2=S)cc1` was run?
A: 24.7 µM

Reference: PubChem BioAssay AID2102 (Southern Research Specialized Biocontainment Screening …, 2009)
